Experimental data taken from publication PMC4890880 (ACS infectious diseases, 2016).
Read-outs that look alike come from different tables or passages of the source.

How the values were obtained:
[1] = system: Plasmodium berghei (Pb-Luc) exoerythrocytic-stage parasites; assay: microbe, parasite or virus in culture; settings: for inhibition at 10 µM: read-out: PbLuc max inhibition (%) @ 10 uM
[2] = target: QuantiLum Recombinant Luciferase (Photinus pyralis, UniProt P08659); assay: Bioluminescence quantification of compound luciferase inhibition; settings: for Emax: read-out: LucInhib max inhibition
[3] = system: HepG2-A16-CD81EGFP cells; assay: cells; settings: Homo sapiens; for IC50: HepG2, read-out: Tox IC50; for inhibition at 10 µM: HepG2, read-out: Tox max inhibition (%) @ 10 uM; for inhibition at 50 µM: HepG2, read-out: Tox max inhibition (%) @ 50 uM
[4] = read-out: Inhibition% @ 50 uM rep1
[5] = read-out: Inhibition% @ 50 uM rep2
[6] = read-out: PbLuc IC50, dose response, 1/3 dilutions, max conc. 10 or 50 uM, unit inferred
[7] = HepG2, read-out: HepG2 Tox% @ 50 uM rep1
[8] = HepG2, read-out: HepG2 Tox% @ 50 uM rep2
[9] = read-out: PbLuc max inhibition (%) @ 50 uM
[10] = read-out: PbLuc IC50, dose response, unit inferred

Sequence of QuantiLum Recombinant Luciferase (P08659 whole entry): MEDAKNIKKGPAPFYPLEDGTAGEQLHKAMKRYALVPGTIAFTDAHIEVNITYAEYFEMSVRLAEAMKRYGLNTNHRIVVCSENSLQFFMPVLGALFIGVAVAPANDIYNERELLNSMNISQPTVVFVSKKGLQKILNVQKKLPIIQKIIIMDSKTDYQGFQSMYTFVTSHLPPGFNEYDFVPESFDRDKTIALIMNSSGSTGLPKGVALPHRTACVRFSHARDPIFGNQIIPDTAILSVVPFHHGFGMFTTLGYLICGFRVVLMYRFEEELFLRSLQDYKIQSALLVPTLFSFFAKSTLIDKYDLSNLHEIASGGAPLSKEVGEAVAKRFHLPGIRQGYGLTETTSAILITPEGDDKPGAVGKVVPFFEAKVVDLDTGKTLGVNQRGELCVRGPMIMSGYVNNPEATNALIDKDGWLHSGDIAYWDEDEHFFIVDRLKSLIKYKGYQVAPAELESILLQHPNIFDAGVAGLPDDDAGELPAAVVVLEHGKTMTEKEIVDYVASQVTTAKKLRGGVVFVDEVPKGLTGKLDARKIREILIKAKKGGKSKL

Structure (SMILES) | inhibition at 50 µM [1, 4] [%] | inhibition at 50 µM [1, 5] [%] | IC50 [1, 6] [µM] | inhibition at 10 µM [1] [%] | IC50 [2] [µM] | Emax [2] [%] | cytotoxicity at 50 µM [3, 7] [%] | cytotoxicity at 50 µM [3, 8] [%] | IC50 [3] [µM] | inhibition at 10 µM [3] [%] | inhibition at 50 µM [1, 9] [%] | inhibition at 50 µM [3] [%] | IC50 [1, 10] [µM]
C=CCc1c(C)nc2ccccc2c1O [MMV006913] | 100 | 97 | 0.292 | 108 | > 20 | 38 | -8 | -5 | > 10 | 15 |  |  | 
Cc1ccc(-c2cc3nc4c(c(O)n3n2)CCCC4)cc1 [MMV006937] | 103 | 102 | 0.114 | 110 | 1.79 | 92 | -11 | -9 | > 10 | 6.62 |  |  | 
CCOC(=O)c1cnc2ccc(CC)cc2c1O [MMV007116] | 102 | 101 | 0.0491 | 110 | > 20 | 17 | -3.48 | -3.29 | > 10 | 10 |  |  | 
COc1ccccc1N1C(=N)SC(=Cc2ccc(OCc3ccccc3F)cc2)C1=O [MMV007199] | 102 | 101 | 1.82 |  | > 50 | 25 | 14 |  | > 50 |  | 106 | 24 | 
CCOc1ccc(Nc2ccnc3cc(Cl)ccc23)cc1 [MMV007285] | 88 | 91 | 1.65 |  | > 50 | 47 | 16 |  | > 50 |  | 100 | 14 | 
CCc1ccc(Nc2cc(C)nc3nc(C)nn23)cc1 [MMV007374] | 92 | 91 | 4.8 |  | > 50 | 30 | 11 | 15 | > 50 |  | 101 | 9 | 
Cc1ccc(Cn2c(N3CCC(C(=O)NCc4cccs4)CC3)nc3ccccc32)cc1 [MMV007564] | 104 | 105 | 2.09 |  | > 50 | 27 | 97 | 99 | > 50 |  | 106 | 69 | 
COc1ccc(C(C)=O)cc1N1C(=O)C2C(C1=O)C1(c3ccccc3)C(=O)C2(c2ccccc2)C(c2ccc(C)cc2)=C1c1ccc(C)cc1 (stereo not drawn) [MMV007695] | 101 | 104 |  |  | > 50 | 35 | -1.58 | 13 | > 50 |  | 60 | 5.54 | 24.8
CCCCOc1ccc(C(=O)Nc2cc(C)on2)cc1 [MMV007906] | 98 | 98 | 0.907 | 97 | > 20 | 34 | -15 | -10 | > 10 | 7.53 |  |  | 
CCOc1ccc(CCNC(=O)c2cccs2)cc1OCC [MMV007978] | 104 | 106 | 7.94 |  | > 50 | 34 | 43 | 10 | > 50 |  | 104 | 8 | 
Cc1c(C)n(Cc2ccc(F)cc2)c2ccc(C(=O)NCc3ccco3)cc12 [MMV008149] | 102 | 102 | 0.765 |  | > 50 | 10 | 9 | 19 | > 50 |  | 107 | 32 | 
Oc1c2c(nc3cc(-c4ccccc4)nn13)CCCC2 [MMV008270] | 103 | 104 | 0.147 | 106 | 0.577 | 92 | -14 | -22 | > 10 | 8 |  |  | 
CCN1CCN(c2c(C(=O)c3ccccc3)cnc3cc(OC)c(OC)cc23)CC1 [MMV008474] | 102 | 103 | 1.01 |  | > 50 | 22 | 7 |  | > 50 |  | 106 | 7 | 
CCOc1cc2c(cc1OCC)C(c1cc(OC)c(O)cc1Cl)NCC2 (stereo not drawn) [MMV008956] | 101 | 100 |  | 22 | > 20 | 24 | -6.54 | -15 | > 10 | 9 |  |  | > 10
CCN(CC)c1ccc(NC(=O)c2cccs2)cc1 [MMV009060] | 101 | 102 | 1.76 |  | 33.1 | 80 | 7 | 16 | > 50 |  | 104 | 6 | 
CC(C)(C)c1ccc(C2CC3=Nc4ccccc4N(C(=O)c4ccccc4Cl)C(c4ccc(F)cc4)C3=C(O)C2)cc1 (stereo not drawn) [MMV011436] | 93 | 94 | 2.39 |  | > 50 | 20 | 1.44 |  | > 50 |  | 99 | 19 | 
Cc1cc(NC(=O)c2ccc(-c3ccccc3)cc2)no1 [MMV018984] | 101 | 100 | 0.79 | 101 | > 20 | 58 | -22 | -20 | > 10 | 19 |  |  | 
COc1ccc(N2CCN(C(CNC(=O)C3CCCCC3)c3ccc4c(c3)OCO4)CC2)cc1 (stereo not drawn) [MMV019662] | 89 | 94 |  |  | > 50 | 38 | 18 | 28 | > 50 |  | 49 | 19 | > 50
O=C(Nc1ccc(N2CCN(Cc3ccccc3)CC2)cc1)c1cccs1 [MMV019670] | 102 | 102 | 0.0944 | 110 | > 20 | 14 | -7.52 | -9 | > 10 | 32 |  |  | 
COc1cccc(C(=O)Nc2ccc(-c3nc4ccccc4[nH]3)cc2)c1 [MMV019762] | -94 | -91 |  | 31 | > 20 | -3 | -16 |  | > 10 | 9 |  |  | > 10
O=C(NC1CCN(Cc2ccccc2)CC1)c1cc(-c2cccnc2)nc2ccc(Cl)cc12 [MMV020490] | 95 | 91 |  |  | > 50 | 23 | 0.383 | -0.245 | > 50 |  | 71 | 12 | > 50
CC(=O)Nc1nnc(SCc2c(C)cc(C(C)(C)C)cc2C)s1 [MMV020700] | 103 | 105 | 2.29 |  | > 50 | 34 | 0.191 | 8 | > 50 |  | 103 | 10 | 
CCCCCC(=O)N1c2ccccc2N=C2CC(c3ccc(OC)c(OC)c3)CC(O)=C2C1c1ccc(C(F)(F)F)cc1 (stereo not drawn) [MMV085583] | 97 | 90 | 7.1 |  | > 50 | 34 | 14 | 28 | > 50 |  | 89 | 4.23 | 
COc1cc(CNCCc2ccc(Cl)cc2)cc(OC)c1O [MMV128432] | 90 | 93 |  |  | > 50 | 39 | -13 |  | > 50 |  | 73 | 33 | > 50
COc1ccc(-c2nc(N3CCN(C(=O)C4CCCCC4)CC3)c3c4c(sc3n2)CCCC4)cc1 [MMV396594] | 98 | 98 |  |  | > 50 | 44 | 2.59 |  | > 50 |  | 69 | 37 | 39.9
CCOc1ccccc1CN1CCc2nc3cc(C(C)(C)C)nn3c(O)c2C1 [MMV396595] | 99 | 100 | 0.569 |  | > 50 | 50 | 0.78 |  | > 50 |  | 106 | 8 | 
